The experiment concerns the target ER in MCF-7 cells (Homo sapiens (Human), UniProt P03372). The experiment is described as follows: In-cell Western (ICW) ER degradation assay in MCF-7 cells. Format: cell-based. The conditions noted are these: for DC50: MCF-7, ER degradation, read-out: MCF7 DC50. From the text: In-cell Western (ICW) assays in MCF-7 and T47D cell lines.
Day 3: After 16 hrs of compounds treatment, cells were fixed by 4% PFA and permeabilized with elution buffer (0.1% Triton X-100 in 1% PBS Solution). Subsequently, cells were blocked with Intercept (PBS) Blocking Buffer (Li-COR, Odyssey Blocking Buffer), and were stained with ER (1:500, Cell signaling) primary antibody for overnight at cold room.
Day 4: Remove the buffer, add IRDye 800CW Goat anti-Rabbit IgG Secondary Antibody (1:2000) and CellTag 700 Stain (1:500) in Intercept (PBS) Blocking Buffer. Finally, cell plate is placed in incubator to dry. Image and signal were captured on Odyssey® DLx Imaging System.

The mark [1] stands for this setting: MCF7, MCF-7, maximal ER degradation, 16 hrs treatment, read-out: MCF7 Dmax.
[2] abbreviates: MCF7, read-out: MCF7 Dmax, MCF-7, maximal ER degradation, 16 hrs treatment.

Read-outs that look alike come from different tables or passages of the source.

Sequence of ER in MCF-7 cells (P03372 whole entry): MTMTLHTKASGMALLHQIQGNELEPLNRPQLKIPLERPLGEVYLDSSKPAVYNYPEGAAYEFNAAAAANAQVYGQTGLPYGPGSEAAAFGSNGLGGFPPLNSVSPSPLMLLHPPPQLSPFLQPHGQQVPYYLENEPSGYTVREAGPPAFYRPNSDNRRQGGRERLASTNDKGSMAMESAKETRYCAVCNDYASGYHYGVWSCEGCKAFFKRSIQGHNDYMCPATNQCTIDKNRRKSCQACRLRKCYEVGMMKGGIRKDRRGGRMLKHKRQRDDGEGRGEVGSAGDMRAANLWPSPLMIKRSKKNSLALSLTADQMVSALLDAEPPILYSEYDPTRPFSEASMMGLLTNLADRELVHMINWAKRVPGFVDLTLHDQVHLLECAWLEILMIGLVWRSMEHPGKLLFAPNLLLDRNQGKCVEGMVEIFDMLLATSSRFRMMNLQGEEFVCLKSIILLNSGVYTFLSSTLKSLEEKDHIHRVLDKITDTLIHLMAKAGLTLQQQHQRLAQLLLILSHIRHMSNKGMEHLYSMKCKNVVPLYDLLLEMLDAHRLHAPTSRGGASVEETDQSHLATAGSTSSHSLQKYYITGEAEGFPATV

For the compound `COc1cc(N2CC3(CC(CN4CCC5(CC4)COc4c5ccc5c4CN(C4CCC(=O)NC4=O)C5=O)C3)C2)c(F)cc1[C@@H]1c2ccc(O)cc2CC[C@@H]1c1ccccc1` (stereo partly drawn) [Compound A184, (S)-3-(1′-((2-(2-fluoro-4-((1S, 2S)-6-hydroxy-2-phenyl-1,2,3,4-tetrahydronaphthalen-1-yl)-5-methoxyphenyl)-2-aza-spiro[3.3]heptan-6-yl)methyl)-6-oxo-6,8-dihydro-2H,7H-spiro[furo[2,3-e]isoindole-3,4′-piperidin]-7-yl)piperidine-2,6-dione], the DC50 – broadly, the concentration giving 50% degradation – (16 hrs treatment) is under 1 nM. As to `COc1c([C@H]2c3ccc(O)cc3CC[C@H]2c2ccccc2)ccc(N2CCC(CN3CCN4c5cc6c(cc5OC[C@@H]4C3)C(=O)N([C@H]3CCC(=O)NC3=O)C6)CC2)c1F` (single isomer, unassigned) [Compound A170], under setting [1], the Dmax (as a rule, the greatest extent of degradation seen) lay in the range of 25 to 50%. The DC50 (16 hrs treatment) was in the range of 10 to 100 nM. For `O=C1CC[C@H](NC(=O)c2ccc3c(n2)OC[C@H]2CN(CC4CCC5(CC4)CN(c4ccc([C@@H]6c7ccc(O)cc7CC[C@@H]6c6ccccc6)cn4)C5)CCN32)C(=O)N1` (single isomer, unassigned) [Compound A127], in that order: 50 to 75% and 1 to 10 nM.

With `COc1cc(N2CC3(CCC(CN4CCC5(CC4)COc4cc6c(cc45)CN([C@H]4CCC(=O)NC4=O)C6=O)CC3)C2)c(F)cc1[C@@H]1c2ccc(O)cc2CC[C@@H]1c1ccccc1` [Compound A167, (S)-3-(1′-((2-(2-fluoro-4-((1S, 2S)-6-hydroxy-2-phenyl-1,2,3,4-tetrahydronaphthalen-1-yl)-5-methoxyphenyl)-2-aza-spiro[3.5]nonan-7-yl)methyl)-7-oxo-5,7-dihydro-2H,6H-spiro [furo[2,3-f]isoindole-3,4′-piper-idin]-6-yl)piperidine-2,6-dione], under setting [2], the Dmax was 50 to 75%. In addition, the DC50 (16 hrs treatment) is under 1 nM. In the same order, the values of `O=C1CC[C@H](N2Cc3cc4c(cc3C2=O)OCC42CCN(CC3CCN(c4ccc([C@@H]5c6ccc(O)cc6CC[C@@H]5c5ccccc5)cc4)CC3)CC2)C(=O)N1` [Compound A186, (S)-3-(1′-((1-(4-((1R,2S)-6-hydroxy-2-phenyl-1,2,3,4-tetra-hydronaphthalen-1-yl)phenyl)-piperidin-4-yl)methyl)-7-oxo-5,7-dihydro-2H,6H-spiro[furo [2,3-f]isoindole-3,4′-piperidin]-6-yl)piperidine-2,6-dione] are 50 to 75% and under 1 nM.

Regarding `COc1cc(N2CC3(CCC(CN4CCN5c6ccc7c(c6OC[C@H]5C4)CN([C@H]4CCC(=O)NC4=O)C7=O)CC3)C2)c(F)cc1[C@H]1c2ccc(O)cc2CC[C@H]1c1ccccc1` (single isomer, unassigned) [Compound A165], the Dmax under setting [1] was in the range of 50 to 75%. For the same compound, for the setting “16 hrs treatment”, the DC50 lay within 10 to 100 nM. Turning to `COc1cc(N2CC3(CCC(CN4CCC5(CC4)COc4cc6c(cc45)CN([C@H]4CCC(=O)NC4=O)C6=O)CC3)C2)c(F)cc1[C@H]1c2ccc(O)cc2CC[C@H]1c1ccccc1` [Compound A172, (S)-3-(1′-((2-(2-fluoro-4-((1R,2R)-6-hydroxy-2-phenyl-1,2,3,4-tetrahydronaphthalen-1-yl)-5-methoxyphenyl)-2-azaspiro[3.5]nonan-7-yl)methyl)-7-oxo-5,7-dihydro-2H,6H-spiro[furo[2,3-f]isoindole-3,4′-piperidin]-6-yl)piperidine-2,6-dione], the Dmax under setting [2] is 25 to 50%. Moreover, under “16 hrs treatment”, the DC50 lay in the range of 10 to 100 nM.

For `COc1c([C@@H]2c3ccc(O)cc3CC[C@@H]2c2ccccc2)ccc(N2CCC(CN3CCN4c5cc6c(cc5OC[C@@H]4C3)C(=O)N([C@H]3CCC(=O)NC3=O)C6)CC2)c1F` (single isomer, unassigned) [Compound A171], under setting [1], the Dmax was over 75%. Moreover, the DC50 (16 hrs treatment) was under 1 nM. Turning to `O=C1CC[C@H](N2Cc3cc4c(cc3C2=O)OC[C@@H]2CN(CC3CCC5(CC3)CN(c3ccc([C@@H]6c7ccc(O)cc7CC[C@@H]6c6ccccc6)cn3)C5)CCN42)C(=O)N1` [Compound A130, (S)-3-((S)-3-((2-(5-((1S,2S)-6-hydroxy-2-phenyl-1,2,3,4-tetrahydronaphthalen-1-yl)pyridin-2-yl)-2-azaspiro[3.5]nonan-7-yl)methyl)-8-oxo-1,2,3,4,4a,5,8,10-octahydro-9H-pyrazino[1′,2′:4,5][1,4]oxazino[2,3-f]isoindol-9-yl)piperidine-2,6-dione], where the note is “16 hrs treatment”, the DC50 fell in the range of 1 to 10 nM. In addition, the “MCF7 Dmax” value (MCF-7, maximal ER degradation, 16 hrs treatment) was “A (“A”: >=75%)”. For the compound `O=C1CC[C@H](N2Cc3cc4c(cc3C2=O)OC[C@@H]2CN(CC3CC5(CCN(c6ncc([C@@H]7c8ccc(O)cc8CC[C@@H]7c7ccccc7)cn6)CC5)C3)CCN42)C(=O)N1` (single isomer, unassigned) [Compound A144], the Dmax under setting [1] was in the range of 50 to 75%. In addition, the 50% degradation concentration (DC50) (16 hrs treatment) was 1 to 10 nM. For `O=C1CC[C@H](N2Cc3c(ccc4c3OC[C@H]3CN(CC5CC6(CCN(c7ccc([C@@H]8c9ccc(O)cc9CC[C@@H]8c8ccccc8)cc7F)CC6)C5)CCN43)C2=O)C(=O)N1` (single isomer, unassigned) [Compound A145], in that order: 50 to 75% and 10 to 100 nM.

Consider `O=C1CC[C@H](N2Cc3c(ccc4c3OC[C@H]3CN(C[C@@H]5COC6(CCN(c7ccc([C@@H]8c9ccc(O)cc9CC[C@@H]8c8ccccc8)cn7)CC6)C5)CCN43)C2=O)C(=O)N1` (single isomer, unassigned) [Compound A138], for which the Dmax under setting [1] was in the range of 50 to 75%. Also, for the setting “16 hrs treatment”, the DC50 was under 1 nM. As for `COc1cc(N2CC3(CCC(CN4CCN5c6cc7c(cc6OC[C@@H]5C4)C(=O)N([C@H]4CCC(=O)NC4=O)C7)CC3)C2)c(F)cc1[C@H]1c2ccc(O)cc2CC[C@H]1c1ccccc1` [Compound A169, (S)-3-((S)-3-((2-(2-fluoro-4-((1R,2R)-6-hydroxy-2-phenyl-1,2,3,4-tetrahydronaphthalen-1-yl)-5-methoxyphenyl)-2-azaspiro[3.5]nonan-7-yl)methyl)-8-oxo-1,2,3,4,4a,5,8,10-octahydro-9H-pyrazino[1′,2′: 4,5][1,4]oxazino[2,3-f]isoindol-9-yl)piperidine-2,6-dione], the Dmax under setting [1] was 25 to 50%. Also, the DC50 (16 hrs treatment) was 10 to 100 nM. In the case of `COc1cc(N2CC3(CCC(CN4CCC5(CC4)COc4c5ccc5c4CN([C@H]4CCC(=O)NC4=O)C5=O)CC3)C2)c(F)cc1[C@H]1c2ccc(O)cc2CC[C@H]1c1ccccc1` [Compound A168, (S)-3-(1′-((2-(2-fluoro-4-((1R,2R)-6-hydroxy-2-phenyl-1,2,3,4-tetrahydronaphthalen-1-yl)-5-methoxyphenyl)-2-azaspiro[3.5]nonan-7-yl)methyl)-6-oxo-6,8-dihydro-2H,7H-spiro[furo[2,3-e]isoindole-3,4′-piperidin]-7-yl)piperidine-2,6-dione], the Dmax under setting [2] lay within 50 to 75%. Further, the DC50 (16 hrs treatment) was in the range of 1 to 10 nM. In the same order, the values of `COc1cc(N2CCC3(CC2)CC(CN2CCC4(CC2)COc2nc(C(=O)N[C@H]5CCC(=O)NC5=O)ccc24)C3)c(F)cc1[C@@H]1c2ccc(O)cc2CC[C@@H]1c1ccccc1` [Compound A190, N-((S)-2,6-dioxopiperidin-3-yl)-1′-((7-(2-fluoro-4-((1S,2S)-6-hydroxy-2-phenyl-1,2,3,4-tetrahydronaphthalen-1-yl)-5-methoxyphenyl)-7-azaspiro [3.5]nonan-2-yl)methyl)-2H-spiro[furo[2,3-b]pyridine-3,4′-piperidine]-6-carboxamide] are 50 to 75% and under 1 nM. In the case of `O=C1CC[C@H](N2Cc3cc4c(cc3C2=O)OC[C@@H]2CN(CC3CC5(CCN(c6ccc([C@H]7c8ccc(O)cc8CC[C@H]7c7ccccc7)cc6F)CC5)C3)CCN42)C(=O)N1` (single isomer, unassigned) [Compound A149], the maximal degradation (Dmax) under setting [1] was over 75%. Moreover, where the note is “16 hrs treatment”, the DC50 is 1 to 10 nM. Regarding `O=C1CC[C@H](N2Cc3c(ccc4c3OCC43CCN(CC4CC5(CCN(c6ccc([C@@H]7c8ccc(O)cc8CC[C@@H]7c7ccccc7)cc6F)CC5)C4)CC3)C2=O)C(=O)N1` [Compound A146, (S)-3-(1′-((7-(2-fluoro-4-((1R,2S)-6-hydroxy-2-phenyl-1,2,3,4-tetrahydronaphthalen-1-yl)phenyl)-7-azaspiro[3.5]nonan-2-yl)methyl)-6-oxo-6,8-dihydro-2H,7H-spiro[furo[2,3-e]isoindole-3,4′-piperidin]-7-yl)piperidine-2,6-dione], under setting [2], the Dmax fell in the range of 25 to 50%. Also, the DC50 (16 hrs treatment) lay within 10 to 100 nM. Take `O=C1CC[C@H](N2Cc3cc4c(cc3C2=O)OCC42CCN(CC3CC4(CCN(c5ccc([C@@H]6c7ccc(O)cc7CC[C@@H]6c6ccccc6)cc5)CC4)C3)CC2)C(=O)N1` [Compound A182, (S)-3-(1′-((7-(4-((1R,2S)-6-hydroxy-2-phenyl-1,2,3,4-tetra-hydronaphthalen-1-yl)phenyl)-7-azaspiro[3.5]nonan-2-yl)-methyl)-7-oxo-5,7-dihydro-2H, 6H-spiro[furo[2,3-f]isoindole-3,4′-piperidin]-6-yl)piperidine-2,6-dione]: the Dmax under setting [2] is 50 to 75%. Further, the half-maximal degradation concentration (DC50) (16 hrs treatment) is under 1 nM. In the case of `O=C1CC[C@H](N2Cc3cc4c(cc3C2=O)OC[C@@H]2CN(CC3CC5(CCN(c6ncc([C@H]7c8ccc(O)cc8CC[C@H]7c7ccccc7)cn6)CC5)C3)CCN42)C(=O)N1` (single isomer, unassigned) [Compound A143], the Dmax under setting [1] was 50 to 75%. Moreover, the DC50 (16 hrs treatment) was in the range of 10 to 100 nM. For the compound `O=C1CC[C@H](N2Cc3c(ccc4c3OC[C@H]3CN(CC5CC6(CCN(c7ncc([C@H]8c9ccc(O)cc9CC[C@H]8c8ccccc8)cn7)CC6)C5)CCN43)C2=O)C(=O)N1` (single isomer, unassigned) [Compound A139], the Dmax under setting [1] lay in the range of 50 to 75%. The DC50 (16 hrs treatment) was in the range of 1 to 10 nM.
